# Source: ChEMBL document CHEMBL3792311, “In vitro and in vivo activity of ML302F: a thioenolate inhibitor of VIM-subfamily metallo -lactamases” (Medchemcomm, 2016)
# The source made the active and inactive calls. The rule behind the calls is not given here.
# What was measured:
# Pseudomonas aeruginosa [1] = experiment: Potentiation of meropenem-induced antibacterial activity against VIM2 carbapenemase producing multidrug-resistant Pseudomonas aeruginosa GR57 clinical isolate infected in Galleria mellonella larvae assessed as relative risk of survival at 4.8 mg/kg measured at 96 hrs relative to control; format: functional
# Pseudomonas aeruginosa [2] = experiment: Potentiation of meropenem-induced antibacterial activity against VIM2 carbapenemase producing multidrug-resistant Pseudomonas aeruginosa 16 clinical isolate at 1:8 meropenem:compound ratio by checkerboard method; format: functional
# Providencia stuartii = experiment: Potentiation of meropenem-induced antibacterial activity against VIM1 carbapenemase producing multidrug-resistant Providencia stuartii 70 clinical isolate assessed as MIC of meropenem at 1:8 meropenem:compound ratio by broth microtiter dilution method; format: functional
# Pseudomonas aeruginosa [3] = experiment: Potentiation of meropenem-induced antibacterial activity against VIM2 carbapenemase producing multidrug-resistant Pseudomonas aeruginosa GR62 clinical isolate at 1:8 meropenem:compound ratio by checkerboard method; format: functional
# Klebsiella oxytoca [4] = experiment: Potentiation of meropenem-induced antibacterial activity against VIM4 carbapenemase producing multidrug-resistant Klebsiella oxytoca 95 clinical isolate at 1:8 meropenem:compound ratio by checkerboard method; format: functional
# Pseudomonas aeruginosa [5] = experiment: Potentiation of meropenem-induced antibacterial activity against VIM2 carbapenemase producing multidrug-resistant Pseudomonas aeruginosa GR57 clinical isolate infected in Galleria mellonella larvae assessed as survival rate at 4.8 mg/kg measured at 96 hrs; format: functional; conditions: GR57, 96 h
# Pseudomonas aeruginosa [6] = experiment: Potentiation of meropenem-induced antibacterial activity against VIM2 carbapenemase producing multidrug-resistant Pseudomonas aeruginosa 30 clinical isolate assessed as MIC of meropenem at 1:8 meropenem:compound ratio by broth microtiter dilution method; format: functional
# Enterobacter cloacae = experiment: Potentiation of meropenem-induced antibacterial activity against VIM4 carbapenemase producing multidrug-resistant Enterobacter cloacae 102 clinical isolate assessed as MIC of meropenem at 1:8 meropenem:compound ratio by broth microtiter dilution method; format: functional
# Pseudomonas aeruginosa [7] = experiment: Potentiation of meropenem-induced antibacterial activity against VIM2 carbapenemase producing multidrug-resistant Pseudomonas aeruginosa 13 clinical isolate at 1:8 meropenem:compound ratio by checkerboard method; format: functional
# Klebsiella pneumoniae [8] = experiment: Potentiation of meropenem-induced antibacterial activity against VIM1 carbapenemase producing multidrug-resistant Klebsiella pneumoniae 177 clinical isolate at 1:8 meropenem:compound ratio by checkerboard method; format: functional
# Klebsiella pneumoniae [9] = experiment: Antibacterial activity against VIM1 carbapenemase producing multidrug-resistant Klebsiella pneumoniae 177 clinical isolate up to 512 mg/L by broth microtiter dilution method; format: functional, organism-based
# Pseudomonas aeruginosa [10] = experiment: Potentiation of meropenem-induced antibacterial activity against VIM2 carbapenemase producing multidrug-resistant Pseudomonas aeruginosa 8 clinical isolate assessed as MIC of meropenem at 1:8 meropenem:compound ratio by broth microtiter dilution method; format: functional
# Pseudomonas aeruginosa [11] = experiment: Antibacterial activity against VIM2 carbapenemase producing multidrug-resistant Pseudomonas aeruginosa 9 clinical isolate up to 512 mg/L by broth microtiter dilution method; format: functional, organism-based
# Pseudomonas aeruginosa [12] = experiment: Antibacterial activity against VIM2 carbapenemase producing multidrug-resistant Pseudomonas aeruginosa GR64 clinical isolate up to 512 mg/L by broth microtiter dilution method; format: functional, organism-based
# Klebsiella pneumoniae [13] = experiment: Potentiation of meropenem-induced antibacterial activity against VIM4 carbapenemase producing multidrug-resistant Klebsiella pneumoniae 120 clinical isolate assessed as MIC of meropenem at 1:8 meropenem:compound ratio by broth microtiter dilution method; format: functional
# Klebsiella pneumoniae [14] = experiment: Potentiation of meropenem-induced antibacterial activity against VIM4 carbapenemase producing multidrug-resistant Klebsiella pneumoniae 120 clinical isolate at 1:8 meropenem:compound ratio by checkerboard method; format: functional
# Pseudomonas aeruginosa [15] = experiment: Antibacterial activity against VIM2 carbapenemase producing multidrug-resistant Pseudomonas aeruginosa 27 clinical isolate up to 512 mg/L by broth microtiter dilution method; format: functional, organism-based
# Klebsiella pneumoniae [16] = experiment: Potentiation of meropenem-induced antibacterial activity against VIM4 carbapenemase producing multidrug-resistant Klebsiella pneumoniae 196 clinical isolate assessed as MIC of meropenem at 1:8 meropenem:compound ratio by broth microtiter dilution method; format: functional
# Klebsiella oxytoca [17] = experiment: Antibacterial activity against VIM4 carbapenemase producing multidrug-resistant Klebsiella oxytoca 126 clinical isolate up to 512 mg/L by broth microtiter dilution method; format: functional, organism-based
# Pseudomonas aeruginosa [18] = experiment: Antibacterial activity against VIM2 carbapenemase producing multidrug-resistant Pseudomonas aeruginosa 30 clinical isolate up to 512 mg/L by broth microtiter dilution method; format: functional, organism-based
# Pseudomonas aeruginosa [19] = experiment: Potentiation of meropenem-induced antibacterial activity against VIM2 carbapenemase producing multidrug-resistant Pseudomonas aeruginosa 11 clinical isolate at 1:8 meropenem:compound ratio by checkerboard method; format: functional
# Pseudomonas aeruginosa [20] = experiment: Antibacterial activity against VIM2 carbapenemase producing multidrug-resistant Pseudomonas aeruginosa GR62 clinical isolate up to 512 mg/L by broth microtiter dilution method; format: functional, organism-based
# Escherichia coli [21] = experiment: Antibacterial activity against VIM4 carbapenemase producing multidrug-resistant Escherichia coli 98 clinical isolate infected in Galleria mellonella larvae assessed as survival rate at 4.8 mg/kg measured at 96 hrs; format: functional, organism-based
# Pseudomonas aeruginosa [22] = experiment: Potentiation of meropenem-induced antibacterial activity against VIM2 carbapenemase producing multidrug-resistant Pseudomonas aeruginosa 14 clinical isolate assessed as MIC of meropenem at 1:8 meropenem:compound ratio by broth microtiter dilution method; format: functional
# Pseudomonas aeruginosa [23] = experiment: Potentiation of meropenem-induced antibacterial activity against VIM2 carbapenemase producing multidrug-resistant Pseudomonas aeruginosa 6 clinical isolate at 1:8 meropenem:compound ratio by checkerboard method; format: functional
# Pseudomonas aeruginosa [24] = experiment: Potentiation of meropenem-induced antibacterial activity against VIM2 carbapenemase producing multidrug-resistant Pseudomonas aeruginosa 8 clinical isolate at 1:8 meropenem:compound ratio by checkerboard method; format: functional
# Pseudomonas aeruginosa [25] = experiment: Potentiation of meropenem-induced antibacterial activity against VIM2 carbapenemase producing multidrug-resistant Pseudomonas aeruginosa GR57 clinical isolate assessed as MIC of meropenem at 1:8 meropenem:compound ratio by broth microtiter dilution method; format: functional
# Escherichia coli [26] = experiment: Potentiation of meropenem-induced antibacterial activity against VIM4 carbapenemase producing multidrug-resistant Escherichia coli 98 clinical isolate infected in Galleria mellonella larvae assessed as survival rate at 4.8 mg/kg measured at 96 hrs; format: functional; conditions: Escherichia coli, 98, 96 h
# Pseudomonas aeruginosa [27] = experiment: Potentiation of meropenem-induced antibacterial activity against VIM2 carbapenemase producing multidrug-resistant Pseudomonas aeruginosa 30 clinical isolate at 1:8 meropenem:compound ratio by checkerboard method; format: functional
# Pseudomonas aeruginosa [28] = experiment: Antibacterial activity against VIM2 carbapenemase producing multidrug-resistant Pseudomonas aeruginosa 3 clinical isolate up to 512 mg/L by broth microtiter dilution method; format: functional, organism-based
# [29] = Inhibition of beta-lactamase VIM-2 (unknown origin)
# Pseudomonas aeruginosa [30] = experiment: Antibacterial activity against VIM2 carbapenemase producing multidrug-resistant Pseudomonas aeruginosa GR57 clinical isolate up to 512 mg/L by broth microtiter dilution method; format: functional, organism-based
# Pseudomonas aeruginosa [31] = experiment: Potentiation of meropenem-induced antibacterial activity against VIM2 carbapenemase producing multidrug-resistant Pseudomonas aeruginosa 47 clinical isolate at 1:8 meropenem:compound ratio by checkerboard method; format: functional
# Escherichia coli [32] = experiment: Potentiation of meropenem-induced antibacterial activity against VIM4 carbapenemase producing multidrug-resistant Escherichia coli 98 clinical isolate infected in Galleria mellonella larvae assessed as relative risk of survival at 4.8 mg/kg measured at 96 hrs relative to control; format: functional
# Pseudomonas aeruginosa [33] = experiment: Potentiation of meropenem-induced antibacterial activity against VIM2 carbapenemase producing multidrug-resistant Pseudomonas aeruginosa 3 clinical isolate at 1:8 meropenem:compound ratio by checkerboard method; format: functional
compound,measurement,setting,value
O=C(O)/C(S)=C/c1c(Cl)ccc(Cl)c1Cl,fold change (FC),Pseudomonas aeruginosa [1],0.28
same,fractional inhibitory concentration index (FICI),Pseudomonas aeruginosa [2],0.5
same,MIC,Providencia stuartii,1 µg/mL
same,fractional inhibitory concentration index (FICI),Pseudomonas aeruginosa [3],0.38
same,fractional inhibitory concentration index (FICI),Klebsiella oxytoca [4],0.38
same,survival at 4.8 mg/kg,Pseudomonas aeruginosa [5],81%
same,MIC,Pseudomonas aeruginosa [6],8 µg/mL
same,MIC,Enterobacter cloacae,4 µg/mL
same,fractional inhibitory concentration index (FICI),Pseudomonas aeruginosa [7],0.75
same,fractional inhibitory concentration index (FICI),Klebsiella pneumoniae [8],1.02
same,Activity,Klebsiella pneumoniae [9],inactive
same,MIC,Pseudomonas aeruginosa [10],16 µg/mL
same,Activity,Pseudomonas aeruginosa [11],inactive
same,Activity,Pseudomonas aeruginosa [12],inactive
same,MIC,Klebsiella pneumoniae [13],2 µg/mL
same,fractional inhibitory concentration index (FICI),Klebsiella pneumoniae [14],0.25
same,Activity,Pseudomonas aeruginosa [15],inactive
same,MIC,Klebsiella pneumoniae [16],1 µg/mL
same,Activity,Klebsiella oxytoca [17],inactive
same,Activity,Pseudomonas aeruginosa [18],inactive
same,fractional inhibitory concentration index (FICI),Pseudomonas aeruginosa [19],0.09
same,Activity,Pseudomonas aeruginosa [20],inactive
same,Activity,Escherichia coli [21],Active
same,MIC,Pseudomonas aeruginosa [22],2 µg/mL
same,fractional inhibitory concentration index (FICI),Pseudomonas aeruginosa [23],0.38
same,fractional inhibitory concentration index (FICI),Pseudomonas aeruginosa [24],0.38
same,MIC,Pseudomonas aeruginosa [25],4 µg/mL
same,survival at 4.8 mg/kg,Escherichia coli [26],69%
same,fractional inhibitory concentration index (FICI),Pseudomonas aeruginosa [27],0.25
same,Activity,Pseudomonas aeruginosa [28],inactive
same,IC50,[29],300 nM
same,Activity,Pseudomonas aeruginosa [30],inactive
same,fractional inhibitory concentration index (FICI),Pseudomonas aeruginosa [31],0.05
same,fold change (FC),Escherichia coli [32],0.64
same,fractional inhibitory concentration index (FICI),Pseudomonas aeruginosa [33],0.25
